biological target: T1, KAT6A (Homo sapiens, UniProt Q92794); assay: Enzymatic activity assay for KAT6A acetyltransferase (TR-FRET, acetylation of histone substrate H3); assay type: biochemical
T1 construct: purchased active motife (Active Motif) 81223
Description: The acetylation effect of KAT6A on histone substrate H3 was determined using the TR-FRET (time-resolved fluorescence resonance energy transfer) method.
• 1) The compounds prepared in the examples of the present disclosure were each dissolved in dimethylsulfoxide to give solutions at a concentration of 10 mmol/L, and then the solutions were diluted to 0.2 mmol/L, i.e., 1 µL of the compound was added to 49 µL of DMSO, and 3-fold dilution was performed to give 10 concentrations. • 2) 50 nL of the test compounds (example compounds) were transferred to 384 reaction plates using Echo, two replicates for each compound, and the plates were centrifuged at a rotation speed of 1000 rpm for 1 min, the final concentration of dimethylsulfoxide (DMSO) being 0.5%. • 3) 2.5 µL of the reaction mixtures obtained in step 2 was added to the 384 reaction plates in step 2), and the plates were centrifuged at 1000 rpm for 1 min and incubated at 25 °C for 10 min. • 4) 2.5 µL of Bio-H3&AcCOA (acetyl-CoA) reaction solution was added to the 384 reaction plates in step 3), and the plates were centrifuged at a rotation speed of 1000 rpm for 1 min and incubated at 25 °C for 90 min. • 5) 5 µL of Eu-Ab& Ulight-SA detection solution was added to the 384 reaction plates in step 4), and the plates were centrifuged at 1000 rpm for 1 min and incubated at 25 °C for 60 min. • 6) The HTRF […] signals were read using a BMG high-throughput drug-screening multi-mode microplate reader.
The acetylation level of the histone H3 was analyzed by the GraphPad Prism 8 software. The reading of the negative control (0.5% DMSO wells) was set as 0% inhibition rate, and the reading of the positive control (wells with the highest concentration of the control compound) was set as 100% inhibition rate. The inhibition rates were calculated, and then IC50 values (half maximal inhibitory concentration) of test compounds were obtained by using a software nonlinear fitting formula; [formula]
Datapositive control: mean of positive control well values; Datanegative control: mean of negative control well values. Table 3. Enzymatic inhibitory activity of example compounds

T1 sequence (Q92794 whole entry): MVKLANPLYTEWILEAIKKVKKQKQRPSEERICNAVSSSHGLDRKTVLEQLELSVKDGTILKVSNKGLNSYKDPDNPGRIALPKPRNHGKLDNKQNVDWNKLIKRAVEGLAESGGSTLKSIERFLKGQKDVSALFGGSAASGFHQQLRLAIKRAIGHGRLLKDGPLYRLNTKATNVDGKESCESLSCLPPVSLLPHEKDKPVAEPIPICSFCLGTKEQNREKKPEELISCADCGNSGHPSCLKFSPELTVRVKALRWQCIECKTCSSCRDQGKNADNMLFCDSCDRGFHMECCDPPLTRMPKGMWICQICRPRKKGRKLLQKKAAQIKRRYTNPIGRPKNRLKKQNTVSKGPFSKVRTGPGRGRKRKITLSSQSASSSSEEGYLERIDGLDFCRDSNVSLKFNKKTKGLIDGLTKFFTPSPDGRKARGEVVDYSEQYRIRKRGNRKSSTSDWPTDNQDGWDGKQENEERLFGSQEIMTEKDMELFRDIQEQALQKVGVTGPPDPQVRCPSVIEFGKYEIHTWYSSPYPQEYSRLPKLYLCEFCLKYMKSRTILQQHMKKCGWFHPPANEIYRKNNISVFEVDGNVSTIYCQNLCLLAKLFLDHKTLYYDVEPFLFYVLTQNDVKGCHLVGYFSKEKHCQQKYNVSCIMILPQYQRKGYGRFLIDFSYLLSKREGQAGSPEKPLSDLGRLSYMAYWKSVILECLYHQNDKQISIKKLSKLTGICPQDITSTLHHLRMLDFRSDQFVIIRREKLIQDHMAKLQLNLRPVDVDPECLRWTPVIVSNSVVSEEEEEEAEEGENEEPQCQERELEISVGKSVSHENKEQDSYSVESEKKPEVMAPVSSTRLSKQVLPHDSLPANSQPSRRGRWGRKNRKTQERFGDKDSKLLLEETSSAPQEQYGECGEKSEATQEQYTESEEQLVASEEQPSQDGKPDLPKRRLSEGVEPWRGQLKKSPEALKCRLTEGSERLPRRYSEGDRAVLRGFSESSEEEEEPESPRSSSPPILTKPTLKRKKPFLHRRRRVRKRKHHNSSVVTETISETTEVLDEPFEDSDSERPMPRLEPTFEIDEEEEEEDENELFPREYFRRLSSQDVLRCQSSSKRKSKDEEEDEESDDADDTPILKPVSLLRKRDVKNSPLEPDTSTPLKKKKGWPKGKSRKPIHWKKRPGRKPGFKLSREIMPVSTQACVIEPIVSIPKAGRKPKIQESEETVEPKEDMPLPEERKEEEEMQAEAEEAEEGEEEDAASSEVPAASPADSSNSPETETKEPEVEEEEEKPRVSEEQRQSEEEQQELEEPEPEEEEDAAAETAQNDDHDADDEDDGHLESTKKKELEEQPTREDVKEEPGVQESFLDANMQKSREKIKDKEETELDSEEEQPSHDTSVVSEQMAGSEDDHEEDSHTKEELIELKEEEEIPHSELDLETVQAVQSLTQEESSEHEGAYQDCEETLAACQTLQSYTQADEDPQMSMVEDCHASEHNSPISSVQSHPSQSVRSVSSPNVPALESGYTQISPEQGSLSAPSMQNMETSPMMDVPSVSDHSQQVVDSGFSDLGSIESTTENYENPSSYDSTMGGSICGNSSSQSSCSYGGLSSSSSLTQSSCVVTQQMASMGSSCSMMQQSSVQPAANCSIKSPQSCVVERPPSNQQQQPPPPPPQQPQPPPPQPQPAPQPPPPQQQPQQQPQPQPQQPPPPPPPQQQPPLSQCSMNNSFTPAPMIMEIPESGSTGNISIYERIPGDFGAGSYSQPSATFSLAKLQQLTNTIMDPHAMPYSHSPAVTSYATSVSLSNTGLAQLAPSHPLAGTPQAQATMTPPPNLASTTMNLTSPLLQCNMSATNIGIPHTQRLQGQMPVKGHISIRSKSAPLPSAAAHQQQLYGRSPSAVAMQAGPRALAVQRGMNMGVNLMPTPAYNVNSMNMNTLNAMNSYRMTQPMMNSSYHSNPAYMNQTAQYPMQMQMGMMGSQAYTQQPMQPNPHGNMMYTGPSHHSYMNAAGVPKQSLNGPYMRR

| SMILES | IC50 |
| --- | --- |
| COc1nc(Cn2cccn2)cc2onc(NS(=O)(=O)c3cccc4c3OCCC4)c12 [Example 7, N-(6-((1H-Pyrazol-1-yl)methyl)-4-methoxyisoxazolo[4,5-c]pyridin-3-yl)-3,4-dihydro-1H-benzopyran-8-sulfonamide] | 5.68 nM |
| COc1nc(Cn2nccn2)cc2onc(NS(=O)(=O)c3cccc4c3OCC4)c12 [Example 12, N-(6-((2H-1,2,3-Triazol-2-yl)methyl)-4-methoxyisoxazolo[4,5-c]pyridin-3-yl)-2,3-dihydrobenzofuran-7-sulfonamide] | 66.7 nM |
| COc1nc(C(F)(F)n2cccn2)cc2onc(NS(=O)(=O)c3cccc4c3OCC4)c12 [Example 17, N-(6-(Difluoro(1H-pyrazol-1-yl)methyl)-4-methoxyisoxazolo[4,5-c]pyridin-3-yl)-2,3-dihydrobenzofuran-7-sulfonamide] | 8.67 nM |
| COc1nc(C(F)n2cccn2)cc2onc(NS(=O)(=O)c3cccc4c3OCC4)c12 (stereo not drawn) [Example 18, N-(6-(Fluoro(1H-pyrazol-1-yl)methyl)-4-methoxyisoxazolo[4,5-c]pyridin-3-yl)-2,3-dihydrobenzofuran-7-sulfonamide] | 7.23 nM |
| COc1nc(Cn2nccn2)cc2onc(NS(=O)(=O)c3cccc4c3ccn4C)c12 [Example 21, N-(6-((2H-1,2,3-Triazol-2-yl)methyl)-4-methoxyisoxazolo[4,5-c]pyridin-3-yl)-1-methyl-1H-indole-4-sulfonamide] | 75.9 nM |
| COc1nc(Cn2cccn2)cc2onc(NS(=O)(=O)c3cccc4c3CCC4)c12 [Example 26, N-(6-((1H-Pyrazol-1-yl)methyl)-4-methoxyisoxazolo[4,5-c]pyridin-3-yl)-2,3-dihydro-1H-indene-4-sulfonamide] | 21.8 nM |
| COc1nc(Cn2nccn2)cc2onc(NS(=O)(=O)c3cccc4c3OCCO4)c12 [Example 29, N-(6-((2H-1,2,3-Triazol-2-yl)methyl)-4-methoxyisoxazolo[4,5-c]pyridin-3-yl)-2,3-dihydrobenzo[b][1,4]dioxine-5-sulfonamide] | 1.57 nM |
| COc1nc(Cc2cocn2)cc2onc(NS(=O)(=O)c3cccc4c3OCCO4)c12 [Example 31, N-(4-Methoxy-6-(oxazol-4-ylmethyl)isoxazolo[4,5-c]pyridin-3-yl)-2,3-dihydrobenzo[b][1,4]dioxine-5-sulfonamide] | 68.6 nM |
| COc1nc(Cc2ccccn2)cc2onc(NS(=O)(=O)c3cccc4c3OCCO4)c12 [Example 32, N-(4-Methoxy-6-(pyridin-2-ylmethyl)isoxazolo[4,5-c]pyridin-3-yl)-2,3-dihydrobenzo[b][1,4]dioxine-5-sulfonamide] | 34.7 nM |
| C#Cc1ccc(S(=O)(=O)Nc2noc3cc(Cn4cccn4)nc(OC)c23)c2c1CCO2 [Example 33, N-(6-((1H-Pyrazol-1-yl)methyl)-4-methoxyisoxazolo[4,5-c]pyridin-3-yl)-4-ethynyl-2,3-dihydrobenzofuran-7-sulfonamide] | 3.13 nM |
| COc1cc2c(cc1S(=O)(=O)Nc1noc3cc(Cn4nccn4)nc(OC)c13)CCCC2 [Example 34, N-(6-((2H-1,2,3-Triazol-2-yl)methyl)-4-methoxyisoxazolo[4,5-c]pyridin-3-yl)-3-methoxy-5,6,7,8-tetrahydronaphthalene-2-sulfonamide] | 12.6 nM |
| COc1nc(Cn2cccn2)cc2onc(NS(=O)(=O)c3cccc4cccnc34)c12 [Example 46] | 1.67 nM |
| COc1nc(Cn2cccn2)cc2onc(NS(=O)(=O)c3cccc4occc34)c12 [Example 47, N-(6-((1H-Pyrazol-1-yl)methyl)-4-methoxyisoxazolo[4,5-c]pyridin-3-yl)benzofuran-4-sulfonamide] | 4.67 nM |
| COc1nc(Cn2cccn2)cc2onc(NS(=O)(=O)c3cccc4nc(C)oc34)c12 [Example 48, N-(6-((1H-Pyrazol-1-yl)methyl)-4-methoxyisoxazolo[4,5-c]pyridin-3-yl)-2-methylbenzo[d]oxazole-7-sulfonamide] | 22.7 nM |
| COc1nc(Cn2cccn2)cc2onc(NS(=O)(=O)c3cccc4ccn(C)c34)c12 [Example 49, N-(6-((1H-Pyrazol-1-yl)methyl)-4-methoxyisoxazolo[4,5-c]pyridin-3-yl)-1-methyl-1H-indole-7-sulfonamide] | 67.8 nM |
| COc1nc(Cn2cccn2)cc2onc(NS(=O)(=O)c3ccc4c(c3)CCCO4)c12 [Example 50, N-(6-((1H-Pyrazol-1-yl)methyl)-4-methoxyisoxazolo[4,5-c]pyridin-3-yl)-3,4-dihydro-1H-benzopyran-6-sulfonamide] | 8.67 nM |
| COc1nc(Cn2cccn2)cc2onc(NS(=O)(=O)c3cccc4c3OC(F)(F)O4)c12 [Example 51, N-(6-((1H-Pyrazol-1-yl)methyl)-4-methoxyisoxazolo[4,5-c]pyridin-3-yl)-2,2-difluorobenzodioxole-4-sulfonamide] | 18.2 nM |
| COc1nc(Cn2cccn2)cc2onc(NS(=O)(=O)c3ccc4oc(C)nc4c3)c12 [Example 52, N-(6-((1H-Pyrazol-1-yl)methyl)-4-methoxyisoxazolo[4,5-c]pyridin-3-yl)-2-methylbenzo[d]oxazole-5-sulfonamide] | 34.3 nM |
| COc1nc(Cn2cccn2)cc2onc(NS(=O)(=O)c3ccc4occc4c3)c12 [Example 53, N-(6-((1H-Pyrazol-1-yl)methyl)-4-methoxyisoxazolo[4,5-c]pyridin-3-yl)benzofuran-5-sulfonamide] | 4.56 nM |
| COc1nc(Cn2cccn2)cc2onc(NS(=O)(=O)c3ccc4c(c3)CN(C)C(=O)O4)c12 [Example 54, N-(6-((1H-Pyrazol-1-yl)methyl)-4-methoxyisoxazolo[4,5-c]pyridin-3-yl)-3-methyl-2-oxo-3,4-dihydro-2H-benzoxazine-6-sulfonamide] | 110 nM |
| COc1nc(Cn2cccn2)cc2onc(NS(=O)(=O)c3ccc4ncsc4c3)c12 [Example 55, N-(6-((1H-Pyrazol-1-yl)methyl)-4-methoxyisoxazolo[4,5-c]pyridin-3-yl)benzothiazole-6-sulfonamide] | 8.79 nM |
| COc1ccc2ccn(C)c2c1S(=O)(=O)Nc1noc2cc(Cn3cccn3)nc(OC)c12 [Example 56, N-(6-((1H-Pyrazol-1-yl)methyl)-4-methoxyisoxazolo[4,5-c]pyridin-3-yl)-6-methoxy-1-methyl-1H-indole-7-sulfonamide] | 16.3 nM |
| COc1ccc2c(c1S(=O)(=O)Nc1noc3cc(Cn4cccn4)nc(OC)c13)OCO2 [Example 58, N-(6-((1H-Pyrazol-1-yl)methyl)-4-methoxyisoxazolo[4,5-c]pyridin-3-yl)-5-methoxy-1,3-benzodioxole-4-sulfonamide] | 0.66 nM |
| COc1c(Cl)c2c(c(OC)c1S(=O)(=O)Nc1noc3cc(Cn4cccn4)nc(OC)c13)CCC2 [Example 63, N-(6-((1H-Pyrazol-1-yl)methyl)-4-methoxyisoxazolo[4,5-c]pyridin-3-yl)-7-chloro-4,6-dimethoxy-2,3-dihydro-1H-indene-5-sulfonamide] | 5.98 nM |
| COc1ccc(S(=O)(=O)Nc2noc3cc(Cn4cccn4)nc(OC)c23)c2occc12 [Example 64, N-(6-((1H-Pyrazol-1-yl)methyl)-4-methoxyisoxazolo[4,5-c]pyridin-3-yl)-4-methoxybenzofuran-7-sulfonamide] | 8.85 nM |
| COc1ccc2cc(C)oc2c1S(=O)(=O)Nc1noc2cc(Cn3cccn3)nc(OC)c12 [Example 65, N-(6-((1H-Pyrazol-1-yl)methyl)-4-methoxyisoxazolo[4,5-c]pyridin-3-yl)-6-methoxy-2-methylbenzofuran-7-sulfonamide] | 2.01 nM |
| COc1ccc2c(c1S(=O)(=O)Nc1noc3cc(Cn4cccn4)nc(OC)c13)OC(C)C2 (stereo not drawn) [Example 66, N-(6-((1H-Pyrazol-1-yl)methyl)-4-methoxyisoxazolo[4,5-c]pyridin-3-yl)-6-methoxy-2-methyl-2,3-dihvdrobenzofuran-7-sulfonamide] | 1.22 nM |
| COc1cc2c(cc1S(=O)(=O)Nc1noc3cc(Cn4cccn4)nc(OC)c13)OCCC2 [Example 67, N-(6-((1H-Pyrazol-1-yl)methyl)-4-methoxyisoxazolo[4,5-c]pyridin-3-yl)-6-methoxy-3,4-dihydro-1H-benzopyran-7-sulfonamide] | 1.31 nM |
| COc1ccc2ccoc2c1S(=O)(=O)Nc1noc2cc(Cn3cc(F)cn3)nc(OC)c12 [Example 68, N-(6-((4-Fluoro-1H-pyrazol-1-yl)methyl)-4-methoxyisoxazolo[4,5-c]pyridin-3-yl)-6-methoxvbenzofuran-7-sulfonamide] | 2.41 nM |
| COc1cc2c(ccn2C)cc1S(=O)(=O)Nc1noc2cc(Cn3cccn3)nc(OC)c12 [Example 69, N-(6-((1H-Pyrazol-1-yl)methyl)-4-methoxyisoxazolo[4,5-c]pyridin-3-yl)-6-methoxy-1-methyl-1H-indole-5-sulfonamide] | 0.87 nM |

Reference: patent EP4692094A1 (Beijing Konruns Pharmaceutical Co., Ltd., priority 2023, dated 2024)
